According to US20180133203A1, “METHODS OF TREATING LIVER DISEASE” (Gilead Sciences, Inc., priority 2016, published 2018):

Test system: CDHFD/NaNO2 rats
Assay: Quantitative morphometric analysis of liver collagen by Picrosirius Red (PSR) staining in CDHFD/NaNO2 rat model of NASH
Assay type: in vivo, male Wistar rats
Conditions: week 4 to 14; for PSR area (% area of liver): mean±SEM, vehicle-treated CDHFD/NaNO2 rats 8.5±0.6%, healthy control 1.7±0.3%, Formula (I) 0.2% in diet, Formula (III) 30 mg/kg/day; for reduction of liver collagen (PSR): vs vehicle-treated CDHFD/NaNO2 rats, Formula (I) 0.2% admixture in diet, Formula (III) 30 mg/kg/day in diet
Description: The following study was conducted to evaluate the efficacy of the combination of an ASK1 inhibitor and an FXR agonist in a rodent model of non-alcoholic steatohepatitis (NASH), relative to the efficacy of the individual agents alone in the model. NASH was induced in male Wistar rats by administration of a choline-deficient high fat diet (CDHFD) combined with the chronic administration of sodium nitrite (CDHFD/NaNO2). The model capitalizes on the “two hit theory” of NASH by inducing both metabolic dysfunction (CDHFD) and oxidative stress (NaNO2) in the liver to result in hepatic fibrosis that is similar in character and severity to that seen in patients with advanced NASH. Rats were fed CDHFD for a total of 14 weeks and were administered NaNO2 from week 4 to 14. The compound of Formula (III) (given as admixture in diet, adjusted to deliver 30 mg/kg/day), compound of Formula (I) (administered as a 0.2% admixture in diet), or vehicle was administered from week 4 to 14. The following endpoints were assessed at the completion of the 14 week study: i) liver fibrosis measured by liver hydroxyproline (OHP) content and by quantitative morphometric analysis of collagen content by Picosirius red (PSR) staining; ii) myofibroblast activation in liver sections as measured by quantitative IHC of the myofibroblast marker desmin; and, iii) Col1a1 and Timp1 in liver tissue measured by RT-PCR. All CDHFD/NaNO2 animals were fed a choline-deficient high-fat diet (CDHFD; Research Diets, Inc) for 14 weeks and were also administered intraperitoneal injections of NaNO2 (3 injections per week; Sigma Aldrich #31443) at a dose of 25 mg/kg (from week 4 to 10) and at a dose of 12.5 mg/kg (from week 10 to 14). Formula (III) (given as admixture in the CDHFD diet, adjusted to deliver 30 mg/kg/day, n=10 animals per group) and Formula (I) (given as a 0.2% admixture in the CDHFD diet, n=10 per group) were administered drug from week 4 to 14. Vehicle control animals were administered the same CDHFD diet with no drug added (Vehicle; n=10 animals per group) from week 4 to 14. […] On the final day of study, rats received a single oral gavage of either Formula (I) or Formula (III) at a dose of 30 mg/kg, four hours before animals were euthanized and tissues were collected for analyses. All endpoints were assessed at the completion of the 14 week study protocol. Whole slide images of Picrosirius Red (PSR) and Desmin stained slides were captured using a Leica AT2 scanner at 40× magnification. […] Quantitative image analysis was performed on the whole slide-scan images using Definiens Tissue Studio Architect XD (Definiens Inc.) to determine the extent and intensity of PSR and Desmin. […] The total PSR-stained area and Desmin IHC staining were measured and expressed as a percentage of total liver area stained.

## O=C(Nc1cccc(-c2nncn2C2CC2)c1)c1cc(-n2cnc(C3CC3)c2)ccn1 [Formula (I)]
  PSR area (% area of liver): 6.2±1.1%
  reduction of liver collagen (PSR): 27%

## O=C(O)c1ccnc(N2CC(O)(c3ccc(OCc4c(-c5c(Cl)cccc5Cl)noc4C4CC4)cc3Cl)C2)c1 [Formula (III)]
  PSR area (% area of liver): 6.6±0.9%
  reduction of liver collagen (PSR): 22%
